Assay results reported in ChEMBL document CHEMBL1131665, “Rapid synthesis of RGD mimetics with isoxazoline scaffolds on solid phase: identification of alphavbeta3 antagonists lead compounds” (Bioorg Med Chem Lett, 1999).
pIC50: −log10 of the molar value.

How the values were obtained:
Format in all cases: functional
[1] = target: Integrin alpha-IIb/beta-3 (Homo sapiens, UniProt P05106+P08514); test: Antagonistic activity against fibrinogen receptor
Integrin alpha-V/beta-3 = Integrin alpha-V/beta-3 (Homo sapiens, UniProt P05106+P06756); test: Antagonistic activity against vitronectin receptor
[2] = Antagonistic activity against Vitronectin receptor protein ( alpha v beta 3 ) by ELISA assay

Sequence of Integrin alpha-IIb/beta-3 (P05106 27-788 limits assumed): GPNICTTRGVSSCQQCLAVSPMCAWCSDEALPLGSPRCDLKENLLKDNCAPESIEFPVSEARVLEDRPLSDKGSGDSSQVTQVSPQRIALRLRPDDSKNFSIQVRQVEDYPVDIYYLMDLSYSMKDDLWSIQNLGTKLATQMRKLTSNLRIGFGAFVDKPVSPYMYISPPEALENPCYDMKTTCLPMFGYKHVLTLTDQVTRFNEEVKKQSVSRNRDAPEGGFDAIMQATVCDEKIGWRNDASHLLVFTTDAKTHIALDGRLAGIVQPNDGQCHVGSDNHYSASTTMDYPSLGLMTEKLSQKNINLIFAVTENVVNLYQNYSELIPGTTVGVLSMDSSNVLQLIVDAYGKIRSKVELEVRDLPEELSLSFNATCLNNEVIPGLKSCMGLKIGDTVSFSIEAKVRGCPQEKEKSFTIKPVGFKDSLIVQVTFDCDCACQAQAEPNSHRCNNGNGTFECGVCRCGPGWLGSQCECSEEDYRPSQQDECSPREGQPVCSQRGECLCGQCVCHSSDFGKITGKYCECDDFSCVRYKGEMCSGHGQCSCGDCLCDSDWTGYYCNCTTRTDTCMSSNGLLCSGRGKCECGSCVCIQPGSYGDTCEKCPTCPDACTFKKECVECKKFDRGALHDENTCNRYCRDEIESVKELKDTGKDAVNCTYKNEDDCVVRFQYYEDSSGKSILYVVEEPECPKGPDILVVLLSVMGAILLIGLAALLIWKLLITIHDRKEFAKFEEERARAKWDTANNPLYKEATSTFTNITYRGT
Sequence of Integrin alpha-IIb/beta-3 (P08514 32-887 limits assumed): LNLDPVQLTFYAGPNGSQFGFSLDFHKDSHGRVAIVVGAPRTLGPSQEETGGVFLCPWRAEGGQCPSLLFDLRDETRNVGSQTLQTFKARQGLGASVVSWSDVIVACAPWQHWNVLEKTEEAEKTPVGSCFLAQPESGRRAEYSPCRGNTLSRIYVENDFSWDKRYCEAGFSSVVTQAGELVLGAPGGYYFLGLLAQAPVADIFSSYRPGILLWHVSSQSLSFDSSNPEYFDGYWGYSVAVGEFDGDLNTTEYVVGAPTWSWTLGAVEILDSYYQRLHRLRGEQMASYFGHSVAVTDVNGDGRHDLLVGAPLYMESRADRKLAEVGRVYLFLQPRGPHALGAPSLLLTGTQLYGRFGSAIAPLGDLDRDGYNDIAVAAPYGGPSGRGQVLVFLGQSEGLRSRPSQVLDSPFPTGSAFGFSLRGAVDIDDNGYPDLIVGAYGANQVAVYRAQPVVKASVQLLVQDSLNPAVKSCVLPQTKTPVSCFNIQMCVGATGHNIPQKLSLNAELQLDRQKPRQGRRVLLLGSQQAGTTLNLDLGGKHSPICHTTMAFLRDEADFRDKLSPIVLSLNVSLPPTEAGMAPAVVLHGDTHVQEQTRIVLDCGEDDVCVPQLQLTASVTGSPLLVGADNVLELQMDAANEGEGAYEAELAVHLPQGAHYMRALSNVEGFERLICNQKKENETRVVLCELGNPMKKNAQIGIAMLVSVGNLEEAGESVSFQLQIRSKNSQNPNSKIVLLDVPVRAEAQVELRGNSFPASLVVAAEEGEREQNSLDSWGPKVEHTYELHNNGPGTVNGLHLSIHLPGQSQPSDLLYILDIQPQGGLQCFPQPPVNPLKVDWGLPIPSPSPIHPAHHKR
Sequence of Integrin alpha-IIb/beta-3 (P08514 891-1039 limits assumed): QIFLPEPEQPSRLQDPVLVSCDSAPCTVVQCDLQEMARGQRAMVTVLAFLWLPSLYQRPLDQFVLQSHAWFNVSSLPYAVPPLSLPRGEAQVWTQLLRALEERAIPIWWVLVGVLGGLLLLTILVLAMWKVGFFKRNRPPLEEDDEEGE
Sequence of Integrin alpha-V/beta-3 (P05106 27-788 limits assumed): as the sequence (P05106 27-788 limits assumed) above
Sequence of Integrin alpha-V/beta-3 (P06756 31-889 limits assumed): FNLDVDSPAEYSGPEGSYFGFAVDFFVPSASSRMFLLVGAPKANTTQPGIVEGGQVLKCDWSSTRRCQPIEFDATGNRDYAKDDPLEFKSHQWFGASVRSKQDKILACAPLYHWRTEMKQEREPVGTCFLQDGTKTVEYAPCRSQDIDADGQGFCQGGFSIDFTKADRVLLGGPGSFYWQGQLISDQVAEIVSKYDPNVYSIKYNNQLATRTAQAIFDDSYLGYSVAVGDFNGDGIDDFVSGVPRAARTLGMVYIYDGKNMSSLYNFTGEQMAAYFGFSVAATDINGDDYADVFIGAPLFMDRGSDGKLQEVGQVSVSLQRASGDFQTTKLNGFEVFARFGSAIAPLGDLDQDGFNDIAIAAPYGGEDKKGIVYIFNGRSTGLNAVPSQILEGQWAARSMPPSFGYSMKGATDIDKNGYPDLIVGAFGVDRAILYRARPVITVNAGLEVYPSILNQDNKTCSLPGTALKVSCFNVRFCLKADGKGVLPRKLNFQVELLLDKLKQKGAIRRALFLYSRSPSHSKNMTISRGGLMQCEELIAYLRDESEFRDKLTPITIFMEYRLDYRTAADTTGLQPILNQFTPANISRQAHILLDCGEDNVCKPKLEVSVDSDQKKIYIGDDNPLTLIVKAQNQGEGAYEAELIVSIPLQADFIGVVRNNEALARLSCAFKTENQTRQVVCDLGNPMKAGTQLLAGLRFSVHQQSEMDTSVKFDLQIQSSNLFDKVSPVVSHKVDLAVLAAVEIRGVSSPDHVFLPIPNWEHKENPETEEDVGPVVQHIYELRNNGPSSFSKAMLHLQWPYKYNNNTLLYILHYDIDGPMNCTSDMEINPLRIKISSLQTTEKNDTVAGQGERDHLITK
Sequence of Integrin alpha-V/beta-3 (P06756 891-1048 limits assumed): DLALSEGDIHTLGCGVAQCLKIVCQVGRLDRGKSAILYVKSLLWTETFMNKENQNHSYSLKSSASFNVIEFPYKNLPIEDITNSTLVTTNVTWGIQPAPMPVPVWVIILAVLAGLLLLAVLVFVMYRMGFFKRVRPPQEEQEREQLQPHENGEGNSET

SMILES	pIC50 [1]	pIC50 (Integrin alpha-V/beta-3)	pIC50 [2]
N=C(N)NCCCCC1CC(C(=O)NC[C@H](NS(=O)(=O)c2ccc(F)cc2)C(=O)O)=NO1 (stereo partly specified)	5.89	7.82	–
Cn1ccc(S(=O)(=O)N[C@@H](CNC(=O)C2=NOC(CCCCN=C(N)N)C2)C(=O)O)n1 (stereo partly specified)	5.44	7.02	–
N=C(N)NCCCCC1CC(C(=O)NC[C@H](NS(=O)(=O)c2cc(Cl)sc2Cl)C(=O)O)=NO1 (stereo partly specified)	5.72	7.62	–
N=C(N)NCCC1=NOC(C(=O)NC[C@H](NC(=O)OCc2ccccc2)C(=O)O)C1 (stereo partly specified)	< 4.00	5.59	–
N=C(N)NCCCCCC1=NOC(C(=O)NC[C@H](NC(=O)OCc2ccccc2)C(=O)O)C1 (stereo partly specified)	4.89	6.15	–
N=C(N)NCCCCC1CC(C(=O)NC[C@H](NS(=O)(=O)c2cccs2)C(=O)O)=NO1 (stereo partly specified)	6.44	7.64	–
N=C(N)NCCCCCC1=NOC(CC(=O)NC[C@H](NC(=O)OCc2ccccc2)C(=O)O)C1 (stereo partly specified)	5.82	6.33	–
N=C(N)NCCCCC1CC(C(=O)NC[C@H](NC(=O)OCc2ccccc2)C(=O)O)=NO1 (stereo partly specified)	–	7.64	–
N=C(N)NCCCCC1=NOC(CC(=O)NC[C@H](NC(=O)OCc2ccccc2)C(=O)O)C1 (stereo partly specified)	6.10	6.74	–
N=C(N)NCC1CC(CCC(=O)NC[C@H](NC(=O)OCc2ccccc2)C(=O)O)=NO1 (stereo partly specified)	< 4.00	6.51	–
N=C(N)NCCCCC1=NOC(CCC(=O)NC[C@H](NC(=O)OCc2ccccc2)C(=O)O)C1 (stereo partly specified)	5.44	6.52	–
Cc1noc(C)c1S(=O)(=O)N[C@@H](CNC(=O)C1=NOC(CCCCN=C(N)N)C1)C(=O)O (stereo partly specified)	6.07	7.85	–
N=C(N)NCCC1=NOC(CC(=O)NC[C@H](NC(=O)OCc2ccccc2)C(=O)O)C1 (stereo partly specified)	4.92	6.05	–
N=C(N)NCCCC1CC(C(=O)NC[C@H](NC(=O)OCc2ccccc2)C(=O)O)=NO1 (stereo partly specified)	4.28	6.85	–
N=C(N)NCCCCC1CC(C(=O)NC[C@H](NS(=O)(=O)c2ccc([N+](=O)[O-])cc2)C(=O)O)=NO1 (stereo partly specified)	4.37	6.85	–
N=C(N)NCCCCC1CC(C(=O)NC[C@H](NS(=O)(=O)c2ccccc2)C(=O)O)=NO1 (stereo partly specified)	6.11	7.96	–

SMILES	pIC50 [1]	pIC50 (Integrin alpha-V/beta-3)	pIC50 [2]
N=C(N)NCCCCC1=NOC(C(=O)NC[C@H](NC(=O)OCc2ccccc2)C(=O)O)C1 (stereo partly specified)	4.26	–	7.09
N=C(N)NCCCC1=NOC(CCC(=O)NC[C@H](NC(=O)OCc2ccccc2)C(=O)O)C1 (stereo partly specified)	–	7.00	–
COc1ccc(S(=O)(=O)N[C@@H](CNC(=O)C2=NOC(CCCCN=C(N)N)C2)C(=O)O)cc1 (stereo partly specified)	6.34	7.92	–
Cc1cc(C)c(S(=O)(=O)N[C@@H](CNC(=O)C2=NOC(CCCCN=C(N)N)C2)C(=O)O)c(C)c1 (stereo partly specified)	6.47	9.15	–
N=C(N)NCCCCC1CC(C(=O)NC[C@H](NS(=O)(=O)c2ccccc2Br)C(=O)O)=NO1 (stereo partly specified)	6.77	8.40	–
Cc1cn(C)[n+](Cl)c1S(=O)(=O)N[C@@H](CNC(=O)C1=NOC(CCCCN=C(N)N)C1)C(=O)[O-] (stereo partly specified)	6.66	8.70	–
CN(C)c1cccc2c1ccc[n+]2S(=O)(=O)N[C@@H](CNC(=O)C1=NOC(CCCCN=C(N)N)C1)C(=O)[O-] (stereo partly specified)	5.10	8.15	–
CC(C)(C)c1ccc(S(=O)(=O)N[C@@H](CNC(=O)C2=NOC(CCCCNC(=N)N)C2)C(=O)O)cc1 (stereo partly specified)	4.33	7.44	–
N=C(N)NCCCCC1CC(C(=O)NC[C@H](NS(=O)(=O)c2cccc3ccccc23)C(=O)O)=NO1 (stereo partly specified)	5.46	7.80	–
N=C(N)NCCC1CC(C(=O)NC[C@H](NC(=O)OCc2ccccc2)C(=O)O)=NO1 (stereo partly specified)	–	7.18	–
N=C(N)NCCCC1=NOC(CC(=O)NC[C@H](NC(=O)OCc2ccccc2)C(=O)O)C1 (stereo partly specified)	4.92	7.14	–
N=C(N)NCCCC1=NOC(C(=O)NC[C@H](NC(=O)OCc2ccccc2)C(=O)O)C1 (stereo partly specified)	< 4.00	6.96	–
N=C(N)NCCCCC1CC(C(=O)NC[C@H](NS(=O)(=O)c2ccc(-c3ccccn3)s2)C(=O)O)=NO1 (stereo partly specified)	6.16	8.10	–
N=C(N)NCCC1=NOC(CCC(=O)NC[C@H](NC(=O)OCc2ccccc2)C(=O)O)C1 (stereo partly specified)	4.64	6.32	–
N=C(N)NCCCCC1CC(C(=O)NC[C@H](NS(=O)(=O)c2ccc(Cl)cc2)C(=O)O)=NO1 (stereo partly specified)	5.59	7.92	–
N=C(N)NCCC1CC(CCC(=O)NC[C@H](NC(=O)OCc2ccccc2)C(=O)O)=NO1 (stereo partly specified)	4.77	7.06	–
